This passage reports T/C results from PubChem BioAssay AID248 (DTP/NCI, 2004).

Molecules are shown by their SMILES. “And” between values parts separate entries of the source, which are not always exact repeats. Equal entries are not always repeated. Toxic doses and inconclusive results are not listed.

In this experiment the test system is L1210 leukemia ip in BDF1 mice, survival T/C. Nature of the experiment: NCI In Vivo Anticancer Drug Screen. Data for tumor model L1210 Leukemia (intraperitoneal) in B6D2F1 (BDF1) mice. The following applies: endpoint: mean survival time, higher = longer survival. The method in brief: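 In this screen, tumor-bearing mice given compound are compared to those given vehicle, and their survival values are reported as a treated-to-control quotient.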

Where [1] appears, read: dose: 100.0 mg/kg/injection, schedule: Q01DX001 (ip), vehicle: carboxymethylcellulose (CMC).
The mark [2] stands for this setting: dose: 200.0 mg/kg/injection, schedule: Q01DX001 (ip), vehicle: carboxymethylcellulose (CMC).
Setting [3] is: dose: 100.0 mg/kg/injection, schedule: Q01DX009 (ip), vehicle: saline with Tween-80.

With `NNc1ncnc2c1ncn2C1OC(CO)C(O)C1O` (stereo not given), the T/C was 106 % of control (dose: 1.0 mg/kg/injection, schedule: Q01DX015 (ip), vehicle: carboxymethylcellulose (CMC)); 109 % of control (dose: 3.0 mg/kg/injection, schedule: Q01DX015 (ip), vehicle: carboxymethylcellulose (CMC)); 106 % of control (dose: 6.0 mg/kg/injection, schedule: Q01DX015 (ip), vehicle: carboxymethylcellulose (CMC)); 97 % of control (dose: 12.0 mg/kg/injection, schedule: Q01DX015 (ip), vehicle: carboxymethylcellulose (CMC)); 106 % of control (dose: 20.0 mg/kg/injection, schedule: Q01DX015 (ip), vehicle: carboxymethylcellulose (CMC)); 118 % of control (dose: 25.0 mg/kg/injection, schedule: Q01DX015 (ip), vehicle: carboxymethylcellulose (CMC)). The T/C runs as follows: (dose: 30.0 mg/kg/injection, schedule: Q01DX015 (ip), vehicle: carboxymethylcellulose (CMC)) 108 % of control; (dose: 44.0 mg/kg/injection, schedule: Q01DX015 (ip), vehicle: carboxymethylcellulose (CMC)) 122 % of control; (dose: 50.0 mg/kg/injection, schedule: Q01DX001 (ip), vehicle: carboxymethylcellulose (CMC)) 108 % of control; (dose: 50.0 mg/kg/injection, schedule: Q01DX Z (ip), vehicle: other) 122 % of control; (dose: 75.0 mg/kg/injection, schedule: Q01DX Z (ip), vehicle: other) 121 % of control; under setting [1], 116 % of control. Moreover, the T/C (dose: 100.0 mg/kg/injection, schedule: Q01DX015 (ip), vehicle: carboxymethylcellulose (CMC)) was 124 % of control; the T/C (dose: 100.0 mg/kg/injection, schedule: Q01DX Z (ip), vehicle: other) was 152 % of control; the T/C (dose: 150.0 mg/kg/injection, schedule: Q01DX015 (ip), vehicle: carboxymethylcellulose (CMC)) was 86 % of control; the T/C (dose: 150.0 mg/kg/injection, schedule: Q01DX Z (ip), vehicle: other) is 95 % of control; the T/C (dose: 186.75 mg/kg/injection, schedule: Q01DX015 (ip), vehicle: gum acacia) is 83 % of control; the T/C under setting [2] was 111 % of control. In addition, the T/C (dose: 220.0 mg/kg/injection, schedule: Q01DX015 (ip), vehicle: carboxymethylcellulose (CMC)) is 95 % of control.

In the case of `O=C1Nc2ccccc2C2=C3CCCCC3=NNC12` (stereo not given), the T/C was 101 % of control (dose: 100.0 mg/kg/injection, schedule: Q04DX002 (ip), vehicle: Klucel (hydroxypropylcellulose) (HPC)); 97 % of control (dose: 200.0 mg/kg/injection, schedule: Q04DX002 (ip), vehicle: Klucel (hydroxypropylcellulose) (HPC)); 108 % of control (dose: 400.0 mg/kg/injection, schedule: Q04DX002 (ip), vehicle: Klucel (hydroxypropylcellulose) (HPC)).

Regarding `CC(C)(C)OC(=O)N1CCCC1C(=O)Oc1ccc([N+](=O)[O-])cc1` (stereo not given), the T/C by setting is: (dose: 25.0 mg/kg/injection, schedule: Q01DX009 (ip), vehicle: saline with Tween-80) 102 % of control; (dose: 50.0 mg/kg/injection, schedule: Q01DX009 (ip), vehicle: saline with Tween-80) 88 % of control; under setting [3], 93 % of control.

For `O=C(CCCC(=O)NNC(=O)Nc1cccc(Cl)c1)NNC(=O)Nc1cccc(Cl)c1`, the T/C is 96 % of control (dose: 50.0 mg/kg/injection, schedule: Q01DX001 (ip), vehicle: saline); 106 % of control (dose: 100.0 mg/kg/injection, schedule: Q01DX001 (ip), vehicle: saline); 106 % of control (dose: 200.0 mg/kg/injection, schedule: Q01DX001 (ip), vehicle: saline); 93 % of control (dose: 400.0 mg/kg/injection, schedule: Q01DX001 (ip), vehicle: saline).

`O=C(Nc1cccc2ccccc12)Nc1cccc2ccccc12`: the T/C is, setting by setting: under setting [1], 95 % of control; under setting [2], 90 % of control; (dose: 400.0 mg/kg/injection, schedule: Q01DX001 (ip), vehicle: carboxymethylcellulose (CMC)) 92 % of control.

In the case of `C=CC[S][Pb]([c]1ccccc1)([c]1ccccc1)[c]1ccccc1`, the T/C reads like this: (dose: 3.0 mg/kg/injection, schedule: Q01DX009 (ip), vehicle: Klucel (hydroxypropylcellulose) (HPC)) 106 % of control; (dose: 6.0 mg/kg/injection, schedule: Q01DX009 (ip), vehicle: Klucel (hydroxypropylcellulose) (HPC)) 90 % of control; (dose: 12.5 mg/kg/injection, schedule: Q04DX002 (ip), vehicle: Klucel (hydroxypropylcellulose) (HPC)) 103 % of control; (dose: 25.0 mg/kg/injection, schedule: Q04DX002 (ip), vehicle: Klucel (hydroxypropylcellulose) (HPC)) 91 % of control.

For `O=C(O)COc1c(Br)cc(F)cc1Br`, the T/C (dose: 100.0 mg/kg/injection, schedule: Q04DX002 (ip), vehicle: other) is 103 % of control; the T/C (dose: 200.0 mg/kg/injection, schedule: Q04DX002 (ip), vehicle: other) is 109 % of control and 90 % of control; the T/C (dose: 400.0 mg/kg/injection, schedule: Q04DX002 (ip), vehicle: other) was 100 % of control and 86 % of control.

In the case of `CC1(C)OCC(CO)O1` (stereo not given), the T/C by setting is: under setting [3], 101 % of control; (dose: 100.0 mg/kg/injection, schedule: Q04DX003 (ip), vehicle: saline with Tween-80) 105 % of control; (dose: 200.0 mg/kg/injection, schedule: Q01DX009 (ip), vehicle: saline with Tween-80) 98 % of control; (dose: 200.0 mg/kg/injection, schedule: Q04DX003 (ip), vehicle: saline with Tween-80) 97 % of control; (dose: 400.0 mg/kg/injection, schedule: Q01DX009 (ip), vehicle: saline with Tween-80) 104 % of control; (dose: 400.0 mg/kg/injection, schedule: Q04DX003 (ip), vehicle: saline with Tween-80) 100 % of control.
